Source: patent US20150344426A1, “COMPOUNDS AND THERAPEUTIC USES THEREOF” (ALZHEIMER'S INSTITUTE OF AMERICA, INC., priority 2012, published 2015)
Values joined by “and” are separate entries in the source; they are usually repeats but may differ in a detail not shown here. Equal entries are not always repeated. Where two headings read alike, the source gives them in different places.

Key:
[1] = Experiment 2: femoral vein samples of rats after IV Parent Compound A; type: in vivo, female Sprague Dawley rats; settings: for [Par. Cmp. A]: listed as Par. Cmp. A
Experimental: Experiment 2. Three female Sprague Dawley rats (215-250 g, Charles River Laboratories) with a catheter implanted surgically in the femoral vein for blood sampling were used in this study. Parent Compound A, solubilized in 3% DMA, 40% PEG300, 12% ethanol, and 45% water by volume, was administered IV at a dose of 2.5 mg/kg in a volume of 2 mL/kg. Femoral blood samples were collected from each animal at 0.083, 0.25, 0.5, 1, 2, 4, and 8 hours following administration of compound and processed for analysis of Parent Compound A concentration.
Pharmacokinetic parameters estimated for Parent Compound A included the maximum observed drug concentration (Cmax), time of maximum observed drug concentration (Tmax), apparent terminal half-life (t1/2), area under the concentration-time curve from time zero to 8 hours postdose (AUC(0-8)), and area under the concentration-time curve extrapolated to infinity (AUC(0-inf)). The bioavailability (% F) of Parent Compound A in portal vein samples relative to IV administration was also estimated.
Plasma samples were analyzed for Example Compound 35 or Parent Compound A concentration using a LC-MS/MS method. All sample runs met standard acceptance criteria for discovery purposes, and were based on a standard curve containing at least 7 points. At least half of quality control samples at each of the three concentrations tested, and two thirds of the entire quality control sample pool, were within 15% of their theoretical value. The r^2 value for each standard curve was ≧0.99. The quantitation range for the Example Compound 35 and Parent Compound A assays was 1 to 100 ng/mL and 5 to 2,500 ng/mL, respectively, using a 0.05 mL sample volume.
The data were entered into the PK software package WinNonlin® version 5.1.1. A complete data check was conducted to verify the accuracy of data entry.
Pharmacokinetic parameters were estimated on median plasma concentrations using extravascular input (PO). Nominal collection times after administration of compound were used for PK analyses. The use of a non-compartmental model provided an adequate fit of the data. Pharmacokinetic parameters estimated for Parent Compound A included the maximum observed drug concentration (Cmax), time of maximum observed drug concentration (Tmax), apparent terminal half-life (t1/2), apparent volume of distribution (Vz obs), apparent clearance (C1 obs), area under the concentration-time curve from time zero to 8 hours postdose of Example Compound 35 […], and area under the concentration-time curve extrapolated to infinity (AUC(0-inf)). Example Compound 35 was detected in only one 0.25 hour hepatic portal vein sample at 1.29 ng/mL. Any Example Compound 35 present in all of the other samples was below the quantitation limit of 1 ng/mL and pharmacokinetic parameters were not determined for those samples. The median PK parameters estimated for Parent Compound A following portal vein sampling of the oral dose of Example Compound 35 or following femoral vein sampling of the intravenous dose of Parent Compound A are given in the Table 5 below. Individual and median concentration of Parent Compound A and Example Compound 35 in hepatic portal vein following oral administration of Example Compound 35 (20 mg/kg) to rats pursuant to Experiment 1 are shown in Table 6 below. Individual and median plasma concentration of Parent Compound A in femoral vein following IV administration of Parent Compound A (2.5 mg/kg) to rats pursuant to Experiment 2 are shown in Table 7 below. FIG. 5 depicts median concentration of Parent Compound A and Example Compound 35 in hepatic portal vein of rats following a single oral dose of Example Compound 35 (20 mg/kg). FIG. 6 depicts median plasma concentration of Parent Compound A following a single IV dose of Parent Compound A (2.5 mg/kg) to rats. […]

[2] = Kinetic solubility (iSol Explorer method); type: physicochemical; settings: system solution buffer (pION), aqueous buffer, kinetic from dmso stock
Experimental: Kinetic solubility was determined using the iSol Explorer method (pION Inc.; Woburn, Mass.). Certain Example Compounds were dissolved in dimethylsulfoxide (DMSO; >99.9% ACS spectrophotometric grade; Sigma-Aldrich, St. Louis, Mo.) to a concentration of 100 mM. The DMSO stock was diluted 1:100 in system solution buffer (pION Inc. Wobum Mass.) that had been adjusted to the desired pH (5.0, 6.8, and 7.4) with either HCl or NaOH. The diluted samples in the desired buffer were incubated for 15 minutes at room temperature and filtered using 96-well plate with 0.25 mm glass fiber/1.2 μm polyethersulfone filter bottoms (Corning, Inc.; Corning, N.Y.). The filtrate is transferred to a second 96-well plate and read on a SpectraMAX 190 (Molecular Devices; Sunnyvale, Calif.) scanning from 190 to 498 nm. The data are analyzed with Sol Explorer Command version 2.2, (pION Inc. Woburn, Mass.) and the concentration reported in molarity and/or mass per volume.

[3] = Stability assessment / semi-quantitative hygroscopicity in a relative humidity (RH) chamber; type: physicochemical; settings: solid in RH chamber; morphology and parent:prodrug composition
Experimental: “ND” in Table 2 refers to “No Data”. Purity was determined by HPLC. Melting point was determined by differential scanning calorimetry (“DSC”), and semi-quantitative hygroscopicity was determined in a relative humidity (“RH”) chamber.

[4] = female, Sprague-Dawley, rat, plasma (femoral vein), Parent Cmpd. A 2.5 mg/kg IV, Femoral Vein, median

Structure (SMILES): O=C(NCc1cccnc1)Nc1ccc(OCCc2ccccc2-c2ccccc2)cc1 [Parent Compound A, 1-{4-[2-(Biphenyl-2-yl)ethoxy]phenyl}-3-(pyridin-3-ylmethyl)urea]
- concentration at 0.083 h ([1]; female, Sprague-Dawley, rat, plasma (femoral vein), iv, 2.5 mg/kg, femoral vein plasma, 0.083 hr after IV Parent Compound A 2.5 mg/kg, read-out: Median [Par. Cmp. A]): 1920 ng/mL
- concentration at 0.25 h ([1]; female, Sprague-Dawley, rat, plasma (femoral vein), iv, 2.5 mg/kg, femoral vein plasma, 0.25 hr after IV Parent Compound A 2.5 mg/kg, individual rats, read-out: [Par. Cmp. A]): 1610 ng/mL
- concentration at 0.25 h ([1]; female, Sprague-Dawley, rat, plasma (femoral vein), iv, 2.5 mg/kg, femoral vein plasma, 0.25 hr after IV Parent Compound A 2.5 mg/kg, read-out: Median [Par. Cmp. A]): 1130 ng/mL
- concentration at 0.5 h ([1]; female, Sprague-Dawley, rat, plasma (femoral vein), iv, 2.5 mg/kg, femoral vein plasma, 0.5 hr after IV Parent Compound A 2.5 mg/kg, individual rats, read-out: [Par. Cmp. A]): 568 ng/mL
- concentration at 0.5 h ([1]; female, Sprague-Dawley, rat, plasma (femoral vein), iv, 2.5 mg/kg, femoral vein plasma, 0.5 hr after IV Parent Compound A 2.5 mg/kg, read-out: Median [Par. Cmp. A]): 720 ng/mL
- concentration at 1 h ([1]; female, Sprague-Dawley, rat, plasma (femoral vein), iv, 2.5 mg/kg, femoral vein plasma, 1 hr after IV Parent Compound A 2.5 mg/kg, individual rats, read-out: [Par. Cmp. A]): 343 ng/mL
- concentration at 1 h ([1]; female, Sprague-Dawley, rat, plasma (femoral vein), iv, 2.5 mg/kg, femoral vein plasma, 1 hr after IV Parent Compound A 2.5 mg/kg, read-out: Median [Par. Cmp. A]): 360 ng/mL
- concentration at 2 h ([1]; female, Sprague-Dawley, rat, plasma (femoral vein), iv, 2.5 mg/kg, femoral vein plasma, 2 hr after IV Parent Compound A 2.5 mg/kg, individual rats, read-out: [Par. Cmp. A]): 136 ng/mL
- concentration at 2 h ([1]; female, Sprague-Dawley, rat, plasma (femoral vein), iv, 2.5 mg/kg, femoral vein plasma, 2 hr after IV Parent Compound A 2.5 mg/kg, read-out: Median [Par. Cmp. A]): 177 ng/mL
- concentration at 4 h ([1]; female, Sprague-Dawley, rat, plasma (femoral vein), iv, 2.5 mg/kg, femoral vein plasma, 4 hr after IV Parent Compound A 2.5 mg/kg, read-out: Median [Par. Cmp. A]): 26.2 ng/mL
- concentration at 8 h ([1]; female, Sprague-Dawley, rat, plasma (femoral vein), iv, 2.5 mg/kg, femoral vein plasma, 8 hr after IV Parent Compound A 2.5 mg/kg, individual rats, * = below the quantitation limit of 5 ng/mL, read-out: [Par. Cmp. A]): 1.98 ng/mL
- concentration at 8 h ([1]; female, Sprague-Dawley, rat, plasma (femoral vein), iv, 2.5 mg/kg, femoral vein plasma, 8 hr after IV Parent Compound A 2.5 mg/kg, read-out: Median [Par. Cmp. A]): 2.1 ng/mL
- AUC(0-inf) [1, 4]: 1460 ng·h/mL
- Cmax [1, 4]: 1920 ng/mL
- Tmax [1, 4]: 4.2 min
- half-life [1, 4]: 60 min
- AUC(0-t) ([1]; female, Sprague-Dawley, rat, plasma (femoral vein), Parent Cmpd. A 2.5 mg/kg IV, Femoral Vein, median, read-out: AUC(0-8)): 1460 ng·h/mL
- [Par. Cmp. A] ([1]; femoral vein plasma, 0.083 hr after IV Parent Compound A 2.5 mg/kg, individual rats, 2.5 mg/kg): 1,303.7 ng/mL and 2,660.1 ng/mL and 1,924.0 ng/mL
- [Par. Cmp. A] ([1]; femoral vein plasma, 0.25 hr after IV Parent Compound A 2.5 mg/kg, individual rats, 2.5 mg/kg): 1,131.8 ng/mL and 878.3 ng/mL
- [Par. Cmp. A] ([1]; femoral vein plasma, 0.5 hr after IV Parent Compound A 2.5 mg/kg, individual rats, 2.5 mg/kg): 1,062.6 ng/mL and 719.5 ng/mL
- [Par. Cmp. A] ([1]; femoral vein plasma, 1 hr after IV Parent Compound A 2.5 mg/kg, individual rats, 2.5 mg/kg): 565.0 ng/mL and 360.4 ng/mL
- [Par. Cmp. A] ([1]; femoral vein plasma, 2 hr after IV Parent Compound A 2.5 mg/kg, individual rats, 2.5 mg/kg): 268.6 ng/mL and 177.2 ng/mL
- [Par. Cmp. A] ([1]; femoral vein plasma, 4 hr after IV Parent Compound A 2.5 mg/kg, individual rats, 2.5 mg/kg): 19.7 ng/mL and 39.7 ng/mL and 26.2 ng/mL
- [Par. Cmp. A] ([1]; femoral vein plasma, 8 hr after IV Parent Compound A 2.5 mg/kg, individual rats, * = below the quantitation limit of 5 ng/mL, 2.5 mg/kg): 2.05* ng/mL and 2.81* ng/mL

Structure (SMILES): O=C(NCc1ccc[n+](COC(=O)c2ccccc2)c1)Nc1ccc(OCCc2ccccc2-c2ccccc2)cc1 [Example 35, 1-[(Benzoyloxy)methyl]-3-{[({4-[2-(biphenyl-2-yl)ethoxy]phenyl}carbamoyl)amino]methyl} pyridinium]
- solubility at 15 min ([2]; pH 5.0, 15 minutes at room temperature): 402 µM
- solubility at 15 min ([2]; pH 6.8, 15 minutes at room temperature): 404 µM
- solubility at 15 min ([2]; pH 7.4, 15 minutes at room temperature): 433 µM
- Stability at 40° C. and 75% RH [3]: No change in morphology stopped at 13 days, only prodrug observed
- Stability at 60° C. and 75% RH [3]: Deliquesced at 7 days, approx 30:70 parent to prodrug observed
